According to US11865128B2, “Aminoglycosides and uses thereof in treating genetic disorders” (Technion Research & Development Foundation Limited, priority 2010, dated 2024):
Converted amounts (≈) assume the structure as drawn. Like-named read-outs stand apart in the source and are kept apart here.

Legend:
E. coli R477/100 = assay: Antibacterial activity MIC, double-microdilution; format: cell-based, Escherichia coli
B. subtilis ATCC6633 = assay: Antibacterial activity MIC, double-microdilution; format: cell-based, Bacillus subtilis
[1] = target: Eukaryotic system (eukaryotic cytoplasmic ribosome); assay: Eukaryotic translation inhibition, coupled transcription/translation, luciferase detection; format: biochemical; settings: for Prokaryotic versus Eukaryotic selectivity IC50^Euk/IC50^Pro: ratio of eukaryotic to prokaryotic translation inhibition IC50
Source text: Prokaryotic and eukaryotic translation inhibition was quantified in coupled transcription/translation assays by using active luciferase detection, performed as described hereinabove. […] In all biological tests, all tested aminoglycosides were in their sulfate salt forms. The concentrations reported refer to that of the free amine form of each aminoglycoside.
(§1) In all biological experiments conducted, all tested aminoglycosides were in their sulfate salt forms. The concentrations reported in Table 3 refer to that of the free amine form of each aminoglycoside. Prokaryotic and eukaryotic translation inhibition was quantified in coupled transcription/translation assays as previously described. The half-maximal concentration (IC50) values were obtained from fitting concentration response curves to the data of at least three independent experiments, using GraFit 5 software.

[2] = tested on: nonsense mutation constructs R3X, R245X, G542X, W1282X, Q70X, R3381X (PCDH15, CFTR, IDUA, Dystrophin); assay: In vitro stop codon readthrough assay, p2Luc dual luciferase, TNT reticulocyte lysate; format: biochemical; settings: cell-free, mutations tested; comparison in words from FIGS. 2, 3, 5-7
Source text: DNA fragments derived from PCDH15, CFTR, Dystrophin and IDUA cDNAs, including the tested nonsense mutation or the corresponding wild type (wt) codon, and four to six upstream and downstream flanking codons were created by annealing following pairs of complementary oligonucleotides:
The fragments were inserted in frame into the polylinker of the p2Luc plasmid between either BamHI and SacI (p.R3X and p.R245X), or SalI and SacI (all the rest) restriction sites.
For the in vitro readthrough assays, the obtained plasm ids, with addition of the tested aminoglycosides were transcribed and translated using the TNT Reticulocyte Lysate Quick Coupled Transcription/Translation System. Luciferase activity was determined after 90 minutes of incubation at 30° C., using the Dual Luciferase Reporter Assay System (Promega™).
Initially, the influence of the chiral C5″-methyl group on readthrough potential was evaluated on the pseudo-trisaccharides NB118 and NB119 by using a dual luciferase reporter assay system as described hereinabove. Briefly, DNA fragments were cloned between BamHI and SacI restriction sites of the p2luc vector and the obtained constructs were transcribed and translated using TNT quick coupled transcription/translation system. The amount of the translated products was evaluated using the dual luciferase reporter assay system and used to calculate the suppression level.

[3] = tested on: HFF (human foreskin fibroblasts) cells; assay: Cell toxicity LC50 in HFF cells; format: cell-based; settings: Table 2
Procedure: (§2) In order to ensure suitable cell viability for each of the tested compounds at the concentrations tested, cell toxicity was evaluated for each compound by measuring the half-maximal-lethal concentration value (LC50 values) in HEK-293 and HFF (human foreskin fibroblasts) cells.
(§3) The percentages of cell viability were calculated as the ratio between the numbers of living cells in cultures grown in the presence of the tested compounds, versus cultures grown under the identical protocol but without the tested compound. The results represent averages of at least three independent experiments.
(§4) The half-maximal lethal concentration (LC50) values were obtained from fitting concentration-response curves to the data of at least three independent experiments, using GraFit 5 software.

[4] = tested on: nonsense mutation constructs R3X, R245X, Q70X, W1282X, G542X in HEK-293 cells; assay: Ex vivo stop codon readthrough assay, p2luc constructs transfected to HEK-293 cells; format: cell-based, human; settings: ex vivo in HEK-293, all the mutations tested, FIGS. 4, 8-10
Procedure: For the ex vivo readthrough assays, the constructs harboring the R3X, R245X, Q70X and W1282X mutations were transfected to HEK-293 cells with Lipofectamine 2000 (Invitrogen) and addition of the tested compounds was performed 6 hours post transfection. The cells were harvested following 16 hours of incubation with the tested aminoglycosides. Stop codon readthrough was calculated as previously described (see, Grentzmann, G. et al., RNA, 1998, 4, p. 479).
The constructs were transfected into a human embryonic kidney cell line (HEK-293) and incubated with varying concentrations of NB122, NB123, NB54 and the control drug gentamicin, and the results are presented in FIGS. 4A-D.
As described hereinabove, the constructs of p2luc plasmid harboring the R3X, R245X, Q70X and W1282X mutations were transfected to HEK-293 cells using lipofectamine2000 and the tested compounds were added 6 hours post transfection. Cells were harvested after 16 hours incubation and luciferase activity was determined using the dual luciferase reporter assay system (Promega™). Stop codon readthrough was calculated as described previously, and the results are averages of at least three independent experiments.

[5] = target: Prokaryotic system (prokaryotic ribosome); assay: Prokaryotic translation inhibition, coupled transcription/translation, luciferase detection; format: biochemical
Procedure: Prokaryotic and eukaryotic translation inhibition was quantified in coupled transcription/translation assays by using active luciferase detection, performed as described hereinabove. […] All the experiments were performed in duplicates and analogous results were obtained in three different experiments. In all biological tests, all tested aminoglycosides were in their sulfate salt forms. The concentrations reported refer to that of the free amine form of each aminoglycoside.
as §1, with “software. All the experiments were performed in duplicates and analogous results were obtained in three different experiments.” for “software.”

HEK-293 cells = assay: Cell toxicity LC50 in HEK-293 cells; format: cell-based; settings: Table 2
Procedure: as §2, §3, §4

human fibroblast cells = settings: background; cited from earlier work
[6] = Cell toxicity LC50 in HFF cells; format: cell-based; settings: human, read-out: Cell toxicity LC50 HFF
Procedure: as §2, §3, §4

[7] = Cell toxicity LC50 in HEK-293 cells; format: cell-based; settings: human, read-out: Cell toxicity LC50 HEK-293
Procedure: as §2, §3, §4

[8] = tested on: Prokaryotic system (prokaryotic ribosome); settings: shown previously; cited from earlier work
[9] = Table 2, read-out: Antibacterial activity MIC E. coli R477/100
[10] = Table 2, read-out: Antibacterial activity MIC B. subtilis ATCC6633
[11] = Table 2, read-out: Translation Inhibition Eukaryotic System IC50
[12] = Table 3, read-out: Translation Inhibition IC50^Euk
[13] = Table 2, read-out: Translation Inhibition Prokaryotic system IC50
[14] = Table 3, read-out: Translation Inhibition IC50^Pro

Compound | MIC (E. coli R477/100; [9]) | MIC (B. subtilis ATCC6633; [10]) | IC50 [1, 11] | IC50 [1, 12] | Prokaryotic versus Eukaryotic selectivity IC50^Euk/IC50^Pro [1] | in vitro readthrough activity (stop codon suppression level) [2] | CC50 [3] | observed efficacy of aminoglycoside-induced readthrough, order [4] | IC50 [5, 13] | IC50 [5, 14] | CC50 (HEK-293 cells) | also measured
C[C@@H](N)[C@H]1O[C@@H](O[C@@H]2[C@@H](O)[C@H](NC(=O)[C@@H](O)CCN)C[C@H](N)[C@H]2O[C@H]2O[C@H]([C@@H](C)O)[C@@H](O)[C@H](O)[C@H]2N)[C@H](O)[C@@H]1O [NB128, 6′-(R)-Methyl-5-O-(5-amino-5,6-dideoxy-β-D-allofuranosyl)-1-N—[(S)-4-amino-2-hydroxy-butanoyl] paromamine] | 384 µM (≈ 224 µg/mL) | 96 µM (≈ 56 µg/mL) | 0.89 ± 0.07 µM | 0.89 ± 0.07 µM | 0.5 | significantly stronger readthrough inducers than the corresponding counterparts | 2780 ± 110 µM | NB127 NB128>NB84>gentamicin | 1.75 ± 0.145 µM | 1.75 ± 0.145 µM | 5350 ± 310 µM | –
C[C@@H](O)C1O[C@H](O[C@@H]2C(N)C[C@@H](N)C(O)[C@H]2O[C@@H]2O[C@H]([C@@H](C)N)[C@H](O)C2O)C(N)[C@@H](O)[C@@H]1O (stereo partly drawn) [NB125, 6′-(R)-Methyl-5-O-(5-amino-5,6-dideoxy-β-D-allofuranosyl)-paromamine] | 1536 µM (≈ 741 µg/mL) | 96 µM (≈ 46.3 µg/mL) | 7.96 ± 0.27 µM | 7.96 ± 0.27 µM | 4.3 | smaller comparatively | 7590 ± 180 µM | NB124>NB125>NB74>gentamicin | 1.86 ± 0.173 µM | 1.86 ± 0.173 µM | 16500 ± 3100 µM | –
CN[C@H]1[C@@H](O)C(OC2[C@H](N)CC(N)[C@@H](O[C@H]3OC(C(C)O)[C@@H](O)[C@H](O)C3N)[C@@H]2O)OCC1(C)O (some centres unmarked) [G418, reference compound] | – | – | 2 ± 0.3 µM | 2 µM | – | the strongest readthrough inducer | – | – | 0.009 ± 0.002 µM | 0.009 ± 0.002 µM | – | LD50 against human fibroblast cells (human fibroblast cells): 0.04 mg/mL; MIC (E. coli R477/100; Escherichia coli, R477/100, read-out: Antibacterial activity MIC E. coli R477/100): 9 µM (≈ 4.47 µg/mL); MIC (B. subtilis ATCC6633; Bacillus subtilis, ATCC6633, read-out: Antibacterial activity MIC B. subtilis ATCC6633): < 1.25 µM; more selective to prokaryotic versus eukaryotic ribosome [1]: 225 fold; CC50 ([6]; Table 2): 1590 ± 140 µM; CC50 ([7]; Table 2): 1310 ± 60 µM
NCC[C@H](O)C(=O)N[C@@H]1CC(N)[C@@H](O[C@H]2OC(CO)[C@@H](O)[C@H](O)C2N)[C@H](O[C@@H]2O[C@H](CN)[C@H](O)C2O)C1O (some centres unmarked) [NB54, reference compound] | – | – | – | 24 ± 1 µM | 151 | – | – | NB122≥NB123>NB54>gentamicin | – | 0.16 ± 0.02 µM | – | weaker inhibitors of prokaryotic translation than gentamicin and paromomycin [8]: about 10 fold; MIC (E. coli R477/100; Escherichia coli, R477/100, Table 1, read-out: Antibacterial activity MIC E. coli R477/100): 588 µM (≈ 327 µg/mL); MIC (B. subtilis ATCC6633; Bacillus subtilis, ATCC6633, Table 1, free amine concentration, sulfate salts tested, read-out: Antibacterial activity MIC B. subtilis ATCC6633): 70 µM; IC50 ([1]; Table 1, read-out: Translation inhibition Eukaryotic System IC50): 24 µM; CC50 ([6]; HFF (human foreskin fibroblast) cells, Table 1): 7800 ± 400 µM; IC50 ([5]; Table 1, read-out: Translation inhibition Prokaryotic system IC50): 0.16 ± 0.02 µM; CC50 ([7]; HEK-293 cells, Table 1): 6100 µM
